Data set [1] in a line: in vitro. The following applies: human, liver microsomes.
In data set [2] the test system is Cortical neurone. Briefly: Neuroprotective activity against amyloid beta (1 to 42 residues)-induced Sprague-Dawley rat primary cortical neurons assessed as cell viability at 20 uM pretreated with compound for 90 mins followed by amyloid beta (1 to 42 residues) induction for 24 hrs and measured on day 5 by MTT assay (reference value: 100%). Type of data set: functional. The conditions noted are these: 121.5 h, time 7290 min, read-out: Activity. Background: Tetrazolium assays rely on reduction of a dye to a coloured formazan, in cell work by metabolically active cells.

The target of data set [3] is T1, Mitogen-activated protein kinase 10 (Homo sapiens, UniProt P53779). In words: Inhibition of JNK3 (unknown origin) using ATF as substrate in presence of [gamma-33P]ATP incubated for 40 mins by scintillation counter analysis.
T1 sequence (P53779 whole entry): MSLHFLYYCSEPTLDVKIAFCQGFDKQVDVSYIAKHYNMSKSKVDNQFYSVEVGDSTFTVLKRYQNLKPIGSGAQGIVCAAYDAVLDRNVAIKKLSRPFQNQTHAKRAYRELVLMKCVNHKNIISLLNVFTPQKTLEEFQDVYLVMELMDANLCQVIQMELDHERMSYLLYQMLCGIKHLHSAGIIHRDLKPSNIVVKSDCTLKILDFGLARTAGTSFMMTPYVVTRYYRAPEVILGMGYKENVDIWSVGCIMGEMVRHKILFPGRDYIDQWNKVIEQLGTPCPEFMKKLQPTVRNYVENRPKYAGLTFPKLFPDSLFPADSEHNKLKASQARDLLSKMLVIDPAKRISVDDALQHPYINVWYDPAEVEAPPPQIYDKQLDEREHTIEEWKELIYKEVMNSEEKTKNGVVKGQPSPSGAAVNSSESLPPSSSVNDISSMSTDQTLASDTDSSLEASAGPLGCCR
A short description of data set [4]: in vitro. The conditions noted are these: Sprague-Dawley, rat, primary cortical neurons.
Description: Cytotoxicity against Sprague-Dawley rat Primary cortical neuron assessed as cell viability incubated for 24 hrs by MTT assay
For data set [5], the target named is Mitogen-activated protein kinase 14 (Homo sapiens, UniProt Q16539).
Sequence of Mitogen-activated protein kinase 14 (Q16539 whole entry): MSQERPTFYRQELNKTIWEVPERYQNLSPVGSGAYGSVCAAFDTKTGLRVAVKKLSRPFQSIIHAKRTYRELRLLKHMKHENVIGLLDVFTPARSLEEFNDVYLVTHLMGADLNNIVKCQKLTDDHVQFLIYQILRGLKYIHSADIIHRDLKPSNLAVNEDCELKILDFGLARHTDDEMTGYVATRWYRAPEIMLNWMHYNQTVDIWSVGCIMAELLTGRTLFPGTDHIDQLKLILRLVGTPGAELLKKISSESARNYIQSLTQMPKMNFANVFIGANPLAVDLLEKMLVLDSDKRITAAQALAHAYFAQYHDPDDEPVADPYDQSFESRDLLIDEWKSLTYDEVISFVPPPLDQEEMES
Description: Inhibition of p38alpha (unknown origin) using 33P-ATP as substrate incubated for 2 hrs by P81 filter-binding method
For data set [6], the target named is Mitogen-activated protein kinase 9 (Homo sapiens, UniProt P45984).
Sequence of Mitogen-activated protein kinase 9 (P45984 whole entry): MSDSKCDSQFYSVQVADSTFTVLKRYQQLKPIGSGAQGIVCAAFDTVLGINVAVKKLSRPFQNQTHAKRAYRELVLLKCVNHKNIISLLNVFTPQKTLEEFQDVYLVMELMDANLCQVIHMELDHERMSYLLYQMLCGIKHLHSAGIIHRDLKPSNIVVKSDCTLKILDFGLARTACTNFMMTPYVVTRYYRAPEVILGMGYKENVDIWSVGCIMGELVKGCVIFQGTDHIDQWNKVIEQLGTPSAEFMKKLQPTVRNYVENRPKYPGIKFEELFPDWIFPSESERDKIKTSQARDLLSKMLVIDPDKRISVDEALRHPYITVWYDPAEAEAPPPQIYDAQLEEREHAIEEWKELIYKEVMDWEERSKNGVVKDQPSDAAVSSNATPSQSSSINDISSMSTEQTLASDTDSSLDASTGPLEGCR
Description: Inhibition of JNK2 (unknown origin) using 33P-ATP as substrate incubated for 2 hrs by P81 filter-binding method
Data set [7] deals with Glycogen synthase kinase-3 alpha (Homo sapiens, UniProt P49840). Briefly: Inhibition of GSK3alpha (unknown origin) using 33P-ATP as substrate incubated for 2 hrs by P81 filter-binding method.
Sequence of Glycogen synthase kinase-3 alpha (P49840 whole entry): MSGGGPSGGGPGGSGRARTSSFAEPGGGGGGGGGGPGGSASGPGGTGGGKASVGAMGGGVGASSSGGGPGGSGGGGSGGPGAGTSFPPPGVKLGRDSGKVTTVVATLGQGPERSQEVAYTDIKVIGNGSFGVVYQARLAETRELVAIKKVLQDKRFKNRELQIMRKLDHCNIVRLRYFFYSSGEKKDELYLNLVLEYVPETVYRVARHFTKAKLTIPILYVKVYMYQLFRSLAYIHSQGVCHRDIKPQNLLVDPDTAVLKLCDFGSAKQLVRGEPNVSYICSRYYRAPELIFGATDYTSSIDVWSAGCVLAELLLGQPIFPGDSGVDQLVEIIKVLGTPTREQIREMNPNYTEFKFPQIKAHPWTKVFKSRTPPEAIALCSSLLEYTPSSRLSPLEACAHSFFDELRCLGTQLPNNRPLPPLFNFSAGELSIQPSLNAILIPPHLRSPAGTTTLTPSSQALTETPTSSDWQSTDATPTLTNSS
Data set [8] deals with Glycogen synthase kinase-3 beta (Homo sapiens, UniProt P49841). In words: Inhibition of GSK3beta (unknown origin) using 33P-ATP as substrate incubated for 2 hrs by P81 filter-binding method.
Sequence of Glycogen synthase kinase-3 beta (P49841 whole entry): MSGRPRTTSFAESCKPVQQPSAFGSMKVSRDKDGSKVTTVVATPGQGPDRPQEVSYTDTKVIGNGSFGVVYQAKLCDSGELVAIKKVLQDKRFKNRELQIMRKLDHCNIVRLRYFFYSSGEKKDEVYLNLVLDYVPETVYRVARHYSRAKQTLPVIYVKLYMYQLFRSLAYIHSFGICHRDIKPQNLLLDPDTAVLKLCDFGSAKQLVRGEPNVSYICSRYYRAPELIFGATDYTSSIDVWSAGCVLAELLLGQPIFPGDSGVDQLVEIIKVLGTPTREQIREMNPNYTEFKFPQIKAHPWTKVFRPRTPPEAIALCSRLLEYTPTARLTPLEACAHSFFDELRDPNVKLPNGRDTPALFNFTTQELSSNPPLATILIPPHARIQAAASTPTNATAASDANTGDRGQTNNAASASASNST
Data set [9] has as its target Mitogen-activated protein kinase 8 (Homo sapiens, UniProt P45983).
Description: Inhibition of JNK1 (unknown origin) using 33P-ATP as substrate incubated for 2 hrs by P81 filter-binding method
Data set [10] can be described thus: in vitro. The conditions noted are these: human, plasma.
Description: Stability in human plasma assessed as parent compound remaining at 60 mins
The nature of data set [11]: in vitro. The conditions noted are these: human, plasma. The source holds these as a separate data set.
Description: Stability in human plasma assessed as parent compound remaining at 30 mins
Data set [12] is described as follows: in vitro. The following applies: PAMPA. A general note: In PAMPA a lipid-coated filter parts donor from acceptor wells.
Description: Permeability coefficient of compound by PAMPA
Data set [13] has as its system Cortical neurone. Briefly: Neuroprotective activity against amyloid beta (1 to 42 residues)-induced Sprague-Dawley rat primary cortical neurons assessed as cell viability at 10 uM pretreated with compound for 90 mins followed by amyloid beta (1 to 42 residues) induction for 24 hrs and measured on day 5 by MTT assay (reference value: 100%). The conditions noted are these: 121.5 h, read-out: Activity.

For data set [14], the target named is T1, Mitogen-activated protein kinase 10. Briefly: Inhibition of JNK3 (unknown origin).

The results in this text go back to ChEMBL document CHEMBL6121018, “Targeting JNK3 for Alzheimer's disease: Design and synthesis of novel inhibitors with aryl group diversity utilizing wide pocket” (Eur J Med Chem, 2025).

Sequence of Mitogen-activated protein kinase 8 (P45983 whole entry): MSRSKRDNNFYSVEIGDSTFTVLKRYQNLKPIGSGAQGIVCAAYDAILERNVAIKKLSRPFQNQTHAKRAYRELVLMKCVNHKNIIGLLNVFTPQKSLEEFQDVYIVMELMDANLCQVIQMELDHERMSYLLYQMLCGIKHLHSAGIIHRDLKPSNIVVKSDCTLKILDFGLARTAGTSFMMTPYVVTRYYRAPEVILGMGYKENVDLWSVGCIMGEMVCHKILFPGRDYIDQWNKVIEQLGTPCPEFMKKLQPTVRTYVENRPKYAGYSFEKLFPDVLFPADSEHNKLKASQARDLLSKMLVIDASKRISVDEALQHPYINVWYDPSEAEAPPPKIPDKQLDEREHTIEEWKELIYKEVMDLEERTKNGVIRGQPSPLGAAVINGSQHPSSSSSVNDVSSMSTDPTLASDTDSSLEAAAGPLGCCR

For the compound `COc1ccc(CCN(C)CCCC(C#N)(c2ccc(OC)c(OC)c2)C(C)C)cc1OC` (stereo not drawn), in data set [1], the fraction remaining (in general, the share of the starting amount still present when the sample was taken) at 1 h was 20.3%.

`Oc1ccc(/C=C/c2cc(O)cc(O)c2)cc1` [RESVERATROL]: in data set [2], the viability at 20 µM is 85%.

Take `CCOC(=O)c1nn(-c2ccnc(Nc3ccc(N4CCC(N(C)C)CC4)cc3)n2)cc1/C=C/c1cccc(Br)c1`: in data set [3], the half-maximal inhibitory concentration (IC50) (usually the midpoint of a concentration-inhibition curve) came to 8330 nM.

`CN1CCN(c2ccc(Nc3nccc(-n4cc(/C=C/c5ccccc5)c(C(N)=O)n4)n3)cc2)CC1`: the IC50 in data set [3] was 276 nM. Also, the viability at 24 h in data set [4] is 104%.

On to `NC(=O)c1nn(-c2ccnc(N[C@H]3CCCN(C(=O)C4CC4)C3)n2)cc1/C=C/c1ccccc1`, for which the IC50 entry in [5] was “Not_active”; in data set [6], 450 nM; in [7] it was 35 nM; in data set [8], 14 nM; in [9], 80 nM.

In data set [10], `CCOC(=O)[C@H](CCc1ccccc1)N[C@@H](C)C(=O)N1CCC[C@H]1C(=O)O` returned an amount remaining at 1 h of 90%. The compound also yielded an amount remaining at 0.5 h in [11] of 95%.

Regarding `CN(C)C1CCN(c2ccc(Nc3nccc(-n4cc(/C=C/c5ccccc5)c(C(N)=O)n4)n3)cc2)CC1`, the IC50 in data set [3] was determined as 96 nM. In addition, the viability at 24 h in data set [4] was found to be 102%.

Consider `CC(=O)[C@H]1CC[C@H]2[C@@H]3CCC4=CC(=O)CC[C@]4(C)[C@H]3CC[C@]12C` [PROGESTERONE], for which, in [12], the Papp (as a rule, the rate of passage across a membrane or cell layer, normalised by area and donor concentration) is 40.7 ×10⁻⁶ cm/s.

For `N#CCc1cc(-c2ccc(Cl)c(Cl)c2)n(-c2ccnc(N[C@H]3CCN(C(=O)C4CC4)C3)n2)n1`, the viability at 10 µM in data set [13] turned out to be 14%. Moreover, in data set [4], the viability at 24 h is 103%. The same compound registered an IC50 in [14] of 227 nM.
